Measurements taken from patent US6777422B2, “Substituted tetrahydroisoquinolines as C5a receptor modulators” (Neurogen Corp., priority 2002, dated 2004).

target: T1, human C5a receptor (Homo sapiens, UniProt P21730); assay: C5a receptor mediated calcium mobilization assay (Example 20); format: cell-based; settings: differentiated U937 cells, read-out: Ca2+ (Ki in the standard assay of C5a receptor mediated calcium mobilization)
T1 construct: endogenous in cells; host or cells: U937 cells differentiated with 1 mM dibutyryl cAMP
T1 sequence (P21730 1-350): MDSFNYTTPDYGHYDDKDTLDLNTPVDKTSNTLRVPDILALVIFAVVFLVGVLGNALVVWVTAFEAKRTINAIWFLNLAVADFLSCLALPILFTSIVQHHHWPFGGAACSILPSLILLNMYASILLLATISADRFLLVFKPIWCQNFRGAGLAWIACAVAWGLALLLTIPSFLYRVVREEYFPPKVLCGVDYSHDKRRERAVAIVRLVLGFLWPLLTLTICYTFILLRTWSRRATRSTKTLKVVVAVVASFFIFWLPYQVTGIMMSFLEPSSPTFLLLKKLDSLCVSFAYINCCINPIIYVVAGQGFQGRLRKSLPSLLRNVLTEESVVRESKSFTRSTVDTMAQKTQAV
Summary of the method: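 Differentiated U937 cells (dibutyryl cAMP, 48 h) loaded with Fluo-3 were pre-incubated 1 h with compound at 1 μM, then challenged with 0.3 nM (final) human recombinant C5a. Calcium response monitored by FLIPR fluorescence (Ex 480/Em 530 nm); antagonism defined as ≥2-fold decrease versus C5a alone.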

Compound	Ki [µM]
C[C@@H](C(=O)N(Cc1ccccc1F)Cc1ccccc1F)N1CCc2ccccc2[C@@H]1c1ccccc1Cl [Compound 87, (2S)-2-[(1R)-1-(2-chlorophenyl)-3,4-dihydroisoquinolin-2(1H)-yl]-N,N-bis(2-fluorobenzyl)propanamide]	< 1
Cc1ccccc1C1c2ccccc2CCN1CC(=O)N(Cc1ccc(C(=O)O)cc1)C1Cc2ccccc2C1 (centres unmarked) [Compound 88, 4-[(indan-2-yl{[1-(2-methylphenyl)-3,4-dihydroisoquinolin-2(1H)-yl]acetyl}amino)methyl] benzoic acid]	< 1
C[C@@H](C(=O)N(CCc1ccccc1)Cc1ccccc1F)N1CCc2ccccc2[C@@H]1c1ccccc1Cl [Compound 91, (2S)-2-[(1R)-1-(2-chlorophenyl)-3,4-dihydroisoquinolin-2(1H)-yl]-N-(2-fluorobenzyl)-N-(2-phenylethyl)propanamide]	< 1
COc1ccc2c(c1)CC(N(Cc1ccccc1F)C(=O)CN1CCc3ccccc3C1c1ccccc1Cl)C2 (centres unmarked) [Compound 93, 2-[1-(2-chlorophenyl)-3,4-dihydroisoquinolin-2(1H)-yl]-N-(2-fluorobenzyl)-N-(5-methoxy-indan-2-yl)acetamide]	< 1
COc1ccc2c(c1)CC(N(Cc1ccccc1F)C(=O)CN1CCc3ccccc3C1c1ccccc1C(F)(F)F)C2 (centres unmarked) [Compound 94, N-(2-fluorobenzyl)-N-(5-methoxy-indan-2-yl)-2-[1-[2-(trifluoromethyl)phenyl]-3,4-dihydroisoquinolin-2(1H)-yl]acetamide]	< 1
O=C(CN1CCc2ccccc2C1c1c(Cl)cccc1Cl)N(Cc1ccccc1F)C1Cc2ccccc2C1 (centres unmarked) [Compound 95, 2-[1-(2,6-dichlorophenyl)-3,4-dihydroisoquinolin-2(1H)-yl]-N-(indan-2-yl)-N-(2-fluorobenzyl)acetamide]	< 1
C[C@@H](C(=O)N(Cc1c[nH]cn1)C1Cc2ccccc2C1)N1CCc2ccccc2[C@@H]1c1ccccc1Cl [Compound 97, (2S)-2-[(1R)-1-(2-chlorophenyl)-3,4-dihydroisoquinolin-2(1H)-yl]-N-(indan-2-yl)-N-(1H-imidazol-4-ylmethyl)propanamide]	< 1
O=C(CN1CCc2ccccc2C1c1c(F)cccc1C(F)(F)F)N(Cc1ccccc1F)C1Cc2ccccc2C1 (centres unmarked) [Compound 99, N-(indan-2-yl)-N-(2-fluorobenzyl)-2-[1-[2-fluoro-6-(trifluoromethyl)phenyl]-3,4-dihydroisoquinolin-2(1H)-yl]acetamide]	< 1
C[C@@H](C(=O)N(CCc1ccccc1F)Cc1ccc(O)cc1)N1CCc2ccccc2[C@@H]1c1ccccc1Cl [Compound 104, (2S)-2-[(1R)-1-(2-chlorophenyl)-3,4-dihydroisoquinolin-2(1H)-yl]-N-[2-(2-fluorophenyl)ethyl]-N-(4-hydroxybenzyl)propanamide]	< 1
C[C@@H](C(=O)N(Cc1cccc(C(=O)N(C)C)c1)C1Cc2ccccc2C1)N1CCc2ccccc2[C@@H]1c1ccccc1Cl [Compound 105, 3-{[{(2S)-2-[(1R)-1-(2-chlorophenyl)-3,4-dihydroisoquinolin-2(1H)-yl]propanoyl}(indan-2-yl)amino]methyl}-N,N-dimethylbenzamide]	< 1
C[C@@H](C(=O)N(CCc1ccccc1)CCc1ccccc1F)N1CCc2ccccc2[C@@H]1c1ccccc1Cl [Compound 108, (2S)-2-[(1R)-1-(2-chlorophenyl)-3,4-dihydroisoquinolin-2(1H)-yl]-N-[2-(2-fluorophenyl)ethyl]-N-(2-phenylethyl)propanamide]	< 1
C[C@@H](C(=O)N(CCc1ccccc1F)Cc1ccccc1F)N1CCc2ccccc2[C@@H]1c1ccccc1Cl [Compound 109, (2S)-2-[(1R)-1-(2-chlorophenyl)-3,4-dihydroisoquinolin-2(1H)-yl]-N-(2-fluorobenzyl)-N-[2-(2-fluorophenyl)ethyl] propanamide]	< 1
Cc1cc(CN(C(=O)[C@H](C)N2CCc3ccccc3[C@@H]2c2c(Cl)cccc2Cl)C2Cc3ccccc3C2)cc(C)c1O [Compound 110, (2S)-2-[(1R)-1-(2,6-dichlorophenyl)-3,4-dihydroisoquinolin-2(1H)-yl]-N-(indan-2-yl)-N-(4-hydroxy-3,5-dimethylbenzyl) propanamide]	< 1
Cc1ccccc1[C@H]1c2ccccc2CCN1CC(=O)N(Cc1cccc(O)c1)C1Cc2ccccc2C1 [Compound 113, N-(indan-2-yl)-N-(3-hydroxybenzyl)-2-[(1S)-1-(2-methylphenyl)-3,4-dihydroisoquinolin-2(1H)-yl]acetamide]	< 1
Cc1ccccc1C1c2c(Cl)cccc2CCN1CC(=O)N(Cc1ccccc1F)C1Cc2ccccc2C1 (centres unmarked) [Compound 116, 2-[8-chloro-1-(2-methylphenyl)-3,4-dihydroisoquinolin-2(1H)-yl]-N-(indan-2-yl)-N(2-fluorobenzyl)acetamide]	< 1

Further lines, results first:

Ki [µM]	Compound
< 1	Cc1ccc(F)c([C@H]2c3ccccc3CCN2[C@@H](C)C(=O)N(Cc2ccccc2F)C2Cc3ccccc3C2)c1 [Compound 86, (2S)-N-(indan-2-yl)-N-(2-fluorobenzyl)-2-[(1R)-1-(2-fluoro-5-methylphenyl)-3,4-dihydroisoquinolin-2(1H)-yl]propanamide]
< 1	C[C@@H](C(=O)N(Cc1ccccc1F)C1Cc2ccccc2C1)N1CCc2ccccc2[C@@H]1c1c(F)cccc1F [Compound 89, (2S)-2-[(1R)-1(2,6-difluorophenyl)-3,4-dihydroisoquinolin-2(1H)-yl]-N-(indan-2-yl)-N-(2-fluorobenzyl)propanamide]
< 1	C[C@@H](C(=O)N(Cc1ccccc1O)C1Cc2ccccc2C1)N1CCc2ccccc2[C@@H]1c1ccccc1Cl [Compound 90, (2S)-2-[(1R)-1-(2-chlorophenyl)-3,4-dihydroisoquinolin-2(1H)-yl]-N-(indan-2-yl)-N-(2-hydroxybenzyl)propanamide]
< 1	O=C(CN1CCc2ccccc2C1c1c(F)cccc1Cl)N(Cc1ccccc1F)C1Cc2ccccc2C1 (centres unmarked) [Compound 96, 2-[1-(2-chloro-6-fluorophenyl)-3,4-dihydroisoquinolin-2(1H)-yl]-N-(indan-2-yl)-N-(2-fluorobenzyl)acetamide]
< 1	C[C@@H](C(=O)N(Cc1cccc(C(=O)O)c1)C1Cc2ccccc2C1)N1CCc2ccccc2[C@@H]1c1ccccc1Cl [Compound 98, 3{[{(2S)-2-[(1R)-1-(2-chlorophenyl)-3,4-dihydroisoquinolin-2(1H)-yl]propanoyl}(indan-2-yl)amino]methyl}benzoic acid]
< 1	Cc1ccccc1C1c2c(F)cccc2CCN1CC(=O)N(Cc1ccccc1F)C1Cc2ccccc2C1 (centres unmarked) [Compound 100, N-(indan-2-yl)-N-(2-fluorobenzyl)-2-[8-fluoro-1-(2-methylphenyl)-3,4-dihydroisoquinolin-2(1H)-yl]acetamide]
< 1	Cc1ccccc1C1c2ccccc2CCN1CC(=O)N(Cc1cc(O)ccc1F)C1Cc2ccccc2C1 (centres unmarked) [Compound 101, N-(indan-2-yl)-N-(2-fluoro-5-hydroxybenzyl)-2-[1-(2-methylphenyl)-3,4-dihydroisoquinolin-2(1H)-yl]acetamide]
< 1	C[C@@H](C(=O)N(Cc1ccccc1F)C1Cc2ccccc2C1)N1CCc2ccccc2[C@@H]1c1c(Cl)cccc1Cl [Compound 102, (2S)-2-[(1R)-1-(2,6-dichlorophenyl)-3,4-dihydroisoquinolin-2(1H)-yl]-N-(indan-2-yl)-N-(2-fluorobenzyl)propanamide]
< 1	C[C@@H](C(=O)N(Cc1ccccc1F)C1Cc2ccccc2C1)N1CCc2ccccc2[C@@H]1c1c(F)cccc1Cl [Compound 103, (2S)-2-[(1R)-1-(2-chloro-6-fluorophenyl)-3,4-dihydroisoquinolin-2(1H)-yl]-N-(indan-2-yl)-N-(2-fluorobenzyl)propanamide]
< 1	Cc1cc(CN(C(=O)[C@H](C)N2CCc3ccccc3[C@@H]2c2ccccc2Cl)C2Cc3ccccc3C2)cc(C)c1O [Compound 106, (2S)-2-[(1R)-1-(2-chlorophenyl)-3,4-dihydroisoquinolin-2(1H)-yl]-N-(indan-2-yl)-N-(4-hydroxy-3,5-dimethylbenzyl)propanamide]
< 1	C[C@@H](C(=O)N(Cc1cccc(C#N)c1)C1Cc2ccccc2C1)N1CCc2ccccc2[C@@H]1c1ccccc1Cl [Compound 111, (2S)-2-[(1R)-1-(2-chlorophenyl)-3,4-dihydroisoquinolin-2(1H)-yl]-N-(3-cyanobenzyl)-N-(indan-2-yl)propanamide]
< 1	C[C@@H](C(=O)N(Cc1cccc([N+](=O)[O-])c1)C1Cc2ccccc2C1)N1CCc2ccccc2[C@@H]1c1ccccc1Cl [Compound 112, (2S)-2-[(1R)-1-(2-chlorophenyl)-3,4-dihydroisoquinolin-2(1H)-yl]-N-(indan-2-yl)-N-(3-nitrobenzyl)propanamide]
< 1	C[C@@H](C(=O)N(Cc1cccc(O)c1)C1Cc2ccccc2C1)N1CCc2ccccc2[C@@H]1c1ccccc1Cl [Compound 114, (2S)-2-[(1R)-1-(2-chlorophenyl)-3,4-dihydroisoquinolin-2(1H)-yl]-N-(indan-2-yl)-N-(3-hydroxybenzyl)propanamide]
< 1	C[C@@H](C(=O)N(Cc1cccc(O)c1F)C1Cc2ccccc2C1)N1CCc2ccccc2[C@@H]1c1ccccc1Cl [Compound 115, (2S)-2-[(1R)-1-(2-chlorophenyl)-3,4-dihydroisoquinolin-2(1H)-yl]-N-(indan-2-yl)-N-(2-fluoro-3-hydroxybenzyl)propanamide]
